From patent publication US20220071971A1, “MACROCYCLIC COMPOUNDS AND THEIR USE IN THE TREATMENT OF DISEASE” (NOVARTIS AG, priority 2018, published 2022)

Molecular target: T1, delF508-CFTR (Homo sapiens, UniProt P13569, DEL508-508)
T1 construct: expressed in transfected cells
Assay: Measurement of delF508-CFTR-HRP surface expression in CFBE41o- cells
Assay type: cell-based
Conditions: for EC50: HRP-tagged delF508-CFTR surface expression, CFBE41o- cells, 24 h with compound, 10-point curve, highest concentration 10 μM; for Emax: CFBE41o-, efficacy relative to reference compound 3-(6-(1-(2,2-difluorobenzo[d][1,3]dioxol-5-yl)cyclopropane-1-carboxamido)-3-methylpyridin-2-yl)benzoic acid, read-out: DelF508-CFTR-HRP Amax %
Procedure, shortened: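 CFBE41o- cells stably expressing delF508-CFTR with HRP in the fourth extracellular loop, induced 48 h with 500 ng/mL doxycycline, then exposed to compound (10-point, 3-fold, top 10 μM, ≤0.5% DMSO) for 24 h at 37° C. Surface HRP read by luminescence with cell-impermeant substrate; EC50 by logistic fit, triplicates, efficacy relative to reference corrector.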

T1 sequence (P13569 with tags, fused parts or gaps DEL508-508): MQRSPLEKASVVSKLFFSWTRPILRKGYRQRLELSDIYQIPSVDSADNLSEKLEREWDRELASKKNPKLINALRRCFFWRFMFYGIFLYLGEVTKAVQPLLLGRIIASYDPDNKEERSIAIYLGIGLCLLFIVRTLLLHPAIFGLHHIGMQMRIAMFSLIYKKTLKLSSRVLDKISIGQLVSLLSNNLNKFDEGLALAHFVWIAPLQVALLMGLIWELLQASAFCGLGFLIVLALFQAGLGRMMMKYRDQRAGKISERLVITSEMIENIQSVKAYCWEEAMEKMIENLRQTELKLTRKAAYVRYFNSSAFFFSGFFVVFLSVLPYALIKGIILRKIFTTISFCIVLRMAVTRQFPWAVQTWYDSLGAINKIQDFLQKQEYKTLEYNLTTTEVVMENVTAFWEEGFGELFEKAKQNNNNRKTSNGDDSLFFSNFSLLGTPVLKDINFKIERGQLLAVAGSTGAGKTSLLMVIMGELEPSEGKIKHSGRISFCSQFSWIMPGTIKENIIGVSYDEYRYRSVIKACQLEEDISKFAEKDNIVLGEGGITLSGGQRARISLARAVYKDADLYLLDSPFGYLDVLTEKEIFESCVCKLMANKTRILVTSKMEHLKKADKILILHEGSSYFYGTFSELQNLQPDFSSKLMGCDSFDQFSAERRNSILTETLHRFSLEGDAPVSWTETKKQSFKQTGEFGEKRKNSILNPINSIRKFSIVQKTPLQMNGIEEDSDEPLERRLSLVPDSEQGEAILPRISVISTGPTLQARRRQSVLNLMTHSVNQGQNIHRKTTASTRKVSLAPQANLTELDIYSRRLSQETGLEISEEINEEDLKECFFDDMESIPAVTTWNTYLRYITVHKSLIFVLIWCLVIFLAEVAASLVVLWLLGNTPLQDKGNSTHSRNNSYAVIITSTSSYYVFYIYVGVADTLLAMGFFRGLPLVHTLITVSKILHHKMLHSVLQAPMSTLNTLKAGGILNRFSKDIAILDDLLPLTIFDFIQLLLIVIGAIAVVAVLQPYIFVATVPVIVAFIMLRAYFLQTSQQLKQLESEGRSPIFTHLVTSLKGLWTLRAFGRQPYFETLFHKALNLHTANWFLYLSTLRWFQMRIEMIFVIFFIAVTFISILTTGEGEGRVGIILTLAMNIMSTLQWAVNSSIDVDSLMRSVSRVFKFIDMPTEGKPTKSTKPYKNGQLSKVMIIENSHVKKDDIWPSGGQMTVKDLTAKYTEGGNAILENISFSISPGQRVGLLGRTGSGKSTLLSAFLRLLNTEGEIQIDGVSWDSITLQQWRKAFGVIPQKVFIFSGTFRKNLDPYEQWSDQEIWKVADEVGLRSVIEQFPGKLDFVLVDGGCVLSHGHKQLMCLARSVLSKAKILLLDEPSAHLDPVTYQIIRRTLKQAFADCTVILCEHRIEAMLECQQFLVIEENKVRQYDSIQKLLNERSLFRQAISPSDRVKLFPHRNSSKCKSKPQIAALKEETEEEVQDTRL

Structure (SMILES) | EC50 [µM] | Emax [%]
O=C(O)CCCN1CCOCCCc2ccccc2-c2nc(ccc2C(F)(F)F)NS(=O)(=O)c2cccc1n2 [Compound 88, 4-(4,4-dioxido-2^3-(trifluoromethyl)-9-oxa-4-thia-3,6-diaza-2,5(2,6)-dipyridina-1(1,2)-benzenacyclododecaphane-6-yl)butanoic acid] | 2.07 | –
O=C(O)CCCN1CCCCc2ccccc2-c2nc(ccc2Cl)NS(=O)(=O)c2cccc1n2 [Compound 91, 4-(2^3-chloro-4,4-dioxido-4-thia-3,6-diaza-2,5(2,6)-dipyridina-1(1,2)-benzenacyclodecaphane-6-yl)butanoic acid] | 2.76 | 721
O=C(O)CCN1CCCCCc2ccccc2-c2cccc(n2)NS(=O)(=O)c2cccc1n2 [Compound 93, 3-(4,4-dioxido-4-thia-3,6-diaza-2,5(2,6)-dipyridina-1(1,2)-benzenacycloundecaphane-6-yl)propanoic acid] | 2.65 | 179
O=C(O)C1(CN2CCCCCc3ccccc3-c3nc(ccc3C(F)(F)F)NS(=O)(=O)c3cccc2n3)CC1 [Compound 94, 1-((4,4-dioxido-2^3-(trifluoromethyl)-4-thia-3,6-diaza-2,5(2,6)-dipyridina-1(1,2)-benzenacycloundecaphane-6-yl)methyl)cyclopropane-1-carboxylic acid] | 0.566 | 737
O=C(O)C1(CN2CCOCCCc3ccccc3-c3nc(ccc3C(F)(F)F)NS(=O)(=O)c3cccc2n3)CC1 [Compound 95, 1-((4,4-dioxido-2^3-(trifluoromethyl)-9-oxa-4-thia-3,6-diaza-2,5(2,6)-dipyridina-1(1,2)-benzenacyclododecaphane-6-yl)methyl)cyclopropane-1-carboxylic acid] | 1.32 | –
CC(C)(CN1CCCCCc2ccc(F)cc2-c2nc(ccc2C(F)(F)F)NS(=O)(=O)c2cccc1n2)C(=O)O [Compound 96, 3-(1^5-fluoro-4,4-dioxido-2^3-(trifluoromethyl)-4-thia-3,6-diaza-2,5(2,6)-dipyridina-1(1,2)-benzenacycloundecaphane-6-yl)-2,2-dimethylpropanoic acid] | 0.431 | 792
O=C(O)CCN1CCCCCc2ccc(F)cc2-c2nc(ccc2C(F)(F)F)NS(=O)(=O)c2cccc1n2 [Compound 97, 3-(1^5-fluoro-4,4-dioxido-2^3-(trifluoromethyl)-4-thia-3,6-diaza-2,5(2,6)-dipyridina-1(1,2)-benzenacycloundecaphane-6-yl)propanoic acid] | 0.747 | 728
O=C(O)CCCCN1CCCCCCCc2ccccc2-c2nc(ccc2C(F)(F)F)NS(=O)(=O)c2cccc1n2 [Compound 101, 5-(4,4-dioxido-2^3-(trifluoromethyl)-4-thia-3,6-diaza-2,5(2,6)-dipyridina-1(1,2)-benzenacyclotridecaphane-6-yl)pentanoic acid] | 0.084 | –
O=C(O)CCCN1CCCOCc2ccccc2-c2nc(ccc2C(F)(F)F)NS(=O)(=O)c2cccc1n2 [Compound 102, 4-(4,4-dioxido-2^3-(trifluoromethyl)-10-oxa-4-thia-3,6-diaza-2,5(2,6)-dipyridina-1(1,2)-benzenacycloundecaphane-6-yl)butanoic acid] | 2.3 | –
O=S1(=O)Nc2ccc(C(F)(F)F)c(n2)-c2cccnc2OCCCCCOc2cccc1n2 [Compound 103, 2^3-(trifluoromethyl)-6,12-dioxa-4-thia-3-aza-1(3,2),2,5(2,6)-tripyridinacyclododecaphane 4,4-dioxide] | 1.38 | 197
O=S1(=O)Nc2ccc(C(F)(F)F)c(n2)-c2cccnc2O[C@H]2CCC[C@H](CCC2)Oc2cccc1n2 [Compound 104, (4^1s,4^5s)-1^3-(trifluoromethyl)-3,5-dioxa-7-thia-8-aza-1,6(2,6),2(3,2)-tripyridina-4(1,5)-cyclooctanacyclooctaphane 7,7-dioxide] | 0.226 | 205
O=S1(=O)Nc2ccc(Cl)c(n2)-c2cccnc2NCCCCCNc2cccc1n2 [Compound 105, 2^3-chloro-4-thia-3,6,12-triaza-1(3,2),2,5(2,6)-tripyridinacyclododecaphane 4,4-dioxide] | 2.22 | 178
Cc1ccnc2c1-c1nc(ccc1Cl)NS(=O)(=O)c1cccc(n1)NCCCCCN2 [Compound 106, 2^3-chloro-1^4-methyl-4-thia-3,6,12-triaza-1(3,2),2,5(2,6)-tripyridinacyclododecaphane 4,4-dioxide] | 1.41 | 287
O=S1(=O)Nc2ccc(Cl)c(n2)-c2cccnc2OCCCCCNc2cccc1n2 [Compound 107, 2^3-chloro-12-oxa-4-thia-3,6-diaza-1(3,2),2,5(2,6)-tripyridinacyclododecaphane 4,4-dioxide] | 1.26 | 169
O=S1(=O)Nc2ccc(C(F)(F)F)c(n2)-c2cccnc2OCCCCCNc2cccc1n2 [Compound 108, 2^3-(trifluoromethyl)-1^2-oxa-4-thia-3,6-diaza-1(3,2),2,5(2,6)-tripyridinacyclododecaphane 4,4-dioxide] | 1.27 | 443
O=S1(=O)Nc2ccc(C(F)(F)F)c(n2)-c2ccccc2CCCCC(CCCO)Oc2cccc1n2 (centres unmarked) [Compound 109, 7-(3-hydroxypropyl)-2^3-(trifluoromethyl)-6-oxa-4-thia-3-aza-2,5(2,6)-dipyridina-1(1,2)-benzenacycloundecaphane 4,4-dioxide] | 0.386 | 186
O=C(O)CCC1CCCCc2ccccc2-c2nc(ccc2C(F)(F)F)NS(=O)(=O)c2cccc(n2)O1 (centres unmarked) [Compound 110, 3-(4,4-dioxido-2^3-(trifluoromethyl)-6-oxa-4-thia-3-aza-2,5(2,6)-dipyridina-1(1,2)-benzenacycloundecaphane-7-yl)propanoic acid] | 0.477 | 170
O=S1(=O)Nc2ccc(Cl)c(n2)-c2ccccc2CCCCCCOc2cccc1n2 [Compound 111, 2^3-chloro-6-oxa-4-thia-3-aza-2,5(2,6)-dipyridina-1(1,2)-benzenacyclododecaphane 4,4-dioxide] | 1.06 | –
O=S1(=O)Nc2ccc(Cl)c(n2)-c2ccccc2CCCCOc2cccc1n2 [Compound 112, 2^3-chloro-6-oxa-4-thia-3-aza-2,5(2,6)-dipyridina-1(1,2)-benzenacyclodecaphane 4,4-dioxide] | 2.6 | 644
O=S1(=O)Nc2ccc(Cl)c(n2)-c2ccccc2CCCCCOc2cccc1n2 [Compound 113, 2^3-chloro-6-oxa-4-thia-3-aza-2,5(2,6)-dipyridina-1(1,2)-benzenacycloundecaphane 4,4-dioxide] | 2.15 | 664
O=S1(=O)Nc2ccc(Cl)c(n2)-c2ccccc2CCCOc2cccc1n2 [Compound 114, 2^3-chloro-6-oxa-4-thia-3-aza-2,5(2,6)-dipyridina-1(1,2)-benzenacyclononaphane 4,4-dioxide] | 3.31 | 97.1
O=S1(=O)Nc2ccc(C(F)(F)F)c(n2)-c2ccccc2CCCCNc2cccc1n2 [Compound 115, 2^3-(trifluoromethyl)-4-thia-3,6-diaza-2,5(2,6)-dipyridina-1(1,2)-benzenacyclodecaphane 4,4-dioxide] | 0.456 | 430
O=S1(=O)Nc2ccc(C(F)(F)F)c(n2)-c2ccccc2CCCCN(CCO)c2cccc1n2 [Compound 116, 6-(2-hydroxyethyl)-2^3-(trifluoromethyl)-4-thia-3,6-diaza-2,5(2,6)-dipyridina-1(1,2)-benzenacyclodecaphane 4,4-dioxide] | 0.445 | 737
O=S1(=O)Nc2ccc(C(F)(F)F)c(n2)-c2ccccc2CCCCCNc2cccc1n2 [Compound 118, 2^3-(trifluoromethyl)-4-thia-3,6-diaza-2,5(2,6)-dipyridina-1(1,2)-benzenacycloundecaphane 4,4-dioxide] | 0.511 | 705
O=S1(=O)Nc2ccc(C(F)(F)F)c(n2)-c2ccccc2CCCOCCNc2cccc1n2 [Compound 119, 2^3-(trifluoromethyl)-9-oxa-4-thia-3,6-diaza-2,5(2,6)-dipyridina-1(1,2)-benzenacyclododecaphane 4,4-dioxide] | 0.866 | 356
O=C(O)CN1CCCCCCc2ccccc2-c2nc(ccc2C(F)(F)F)NS(=O)(=O)c2cccc1n2 [Compound 120, 2-(4,4-dioxido-2^3-(trifluoromethyl)-4-thia-3,6-diaza-2,5(2,6)-dipyridina-1(1,2)-benzenacyclododecaphane-6-yl)acetic acid] | 1.41 | 949
O=S1(=O)Nc2ccc(C(F)(F)F)c(n2)-c2ccccc2CCCCCN(CCN2CCNCC2)c2cccc1n2 [Compound 121, 6-(2-(piperazin-1-yl)ethyl)-2^3-(trifluoromethyl)-4-thia-3,6-diaza-2,5(2,6)-dipyridina-1(1,2)-benzenacycloundecaphane 4,4-dioxide] | 0.495 | 348
O=S1(=O)Nc2ccc(C(F)(F)F)c(n2)-c2ccccc2CCCCCN(CCN2CCCC2)c2cccc1n2 [Compound 122, 6-(2-(pyrrolidin-1-yl)ethyl)-2^3-(trifluoromethyl)-4-thia-3,6-diaza-2,5(2,6)-dipyridina-1(1,2)-benzenacycloundecaphane 4,4-dioxide] | 1.22 | 226
O=S1(=O)Nc2ccc(C(F)(F)F)c(n2)-c2ccccc2CCCCCN(CCN2C[C@H](O)[C@@H](O)C2)c2cccc1n2 [Compound 123, 6-(2-((3S,4S)-3,4-dihydroxypyrrolidin-1-yl)ethyl)-2^3-(trifluoromethyl)-4-thia-3,6-diaza-2,5(2,6)-dipyridina-1(1,2)-benzenacycloundecaphane 4,4-dioxide] | 1.84 | 308
